# Assay results taken from patent publication US20240226109A1, “CO-THERAPY WITH VECTOR AND NICOTINIC AGONIST” (OYSTER POINT PHARMA, INC., priority 2021, published 2024).
# Legend:
# [1] = biological target: T1, nAChR subtype alpha7 (Homo sapiens, UniProt P36544); assay: nAChR agonist response (evoked current compared with ACh response) in cells expressing a nAChR subtype; type: cell-based; conditions: for agonist characterization at nAChR subtype alpha7: response relative to ACh response
# T1 construct: expressed in transfected cells
# T1 sequence (P36544 23-502): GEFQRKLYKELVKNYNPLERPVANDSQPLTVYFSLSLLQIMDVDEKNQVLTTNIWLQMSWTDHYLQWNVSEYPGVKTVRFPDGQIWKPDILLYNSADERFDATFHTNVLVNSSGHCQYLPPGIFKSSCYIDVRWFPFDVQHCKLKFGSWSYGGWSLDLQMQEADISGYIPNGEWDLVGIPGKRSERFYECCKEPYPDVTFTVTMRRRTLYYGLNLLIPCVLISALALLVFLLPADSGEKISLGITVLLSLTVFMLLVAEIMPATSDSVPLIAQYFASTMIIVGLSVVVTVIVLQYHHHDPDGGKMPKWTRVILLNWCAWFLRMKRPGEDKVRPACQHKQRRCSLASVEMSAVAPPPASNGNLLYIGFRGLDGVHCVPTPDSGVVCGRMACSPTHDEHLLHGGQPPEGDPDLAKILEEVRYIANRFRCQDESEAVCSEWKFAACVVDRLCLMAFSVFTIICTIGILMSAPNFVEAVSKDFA
# Source text: (§1) In general, a nAChR agonist is a full agonist if it evokes a response upon binding to a given receptor that is equal or greater to that of ACh.
# (§2) nAChR agonist response, from which receptor activation can be determined can, for example, be generated using an appropriate cell-based assay. Cells designed to express a particular nAChR receptor subtype and generate an electrical current response when bound to and activated by a nAChR agonist can be used to characterize the agonist profile of a compound and the amount of receptor activation thus determined. An example of a generic protocol is described below.
# (§3) Cells that express a particular human nAChR subtype are first exposed to ACh. ACh binds and activates the receptor, thereby evoking a current. […] This current is recorded as the ACh response and serves as the 100% nAChR agonist response and to which responses to other nAChR agonists are compared. After washing, the cells are exposed to a nAChR agonist at various concentrations (e.g., 0.1, 0.3, 1, 3, 10, 30, 100, and 300 micromolar). The current evoked by exposure to the nAChR agonist is measured and recorded for each nAChR concentration. This nAChR agonist response data is then normalized to unity versus the maximal ACh evoked current and plotted as a function of the logarithm of the nAChR agonist concentration. The nAChR agonist response is then calculated as a percentage of the ACh response.
# (§4) A nAChR agonist evoking a response equal to or greater than the maximum ACh response determined at the same receptor type is a full agonist. In some cases, a nAChR agonist evoking a response of less than 100% of the ACh response may still be characterized a full agonist, taking into account experimental variability. […] In some cases, a nAChR agonist evoking 90% of the ACh response or greater is considered a full agonist. […] In some cases, a nAChR agonist evoking 80% of the ACh response or greater is considered a full agonist.
# [2] = tested on: T2, nAChR subtype alpha3alpha5beta4 (Homo sapiens); assay: as above; type: cell-based; conditions: response relative to ACh response
# T2 construct: expressed in transfected cells
# T2 sequence (P32297 32-505): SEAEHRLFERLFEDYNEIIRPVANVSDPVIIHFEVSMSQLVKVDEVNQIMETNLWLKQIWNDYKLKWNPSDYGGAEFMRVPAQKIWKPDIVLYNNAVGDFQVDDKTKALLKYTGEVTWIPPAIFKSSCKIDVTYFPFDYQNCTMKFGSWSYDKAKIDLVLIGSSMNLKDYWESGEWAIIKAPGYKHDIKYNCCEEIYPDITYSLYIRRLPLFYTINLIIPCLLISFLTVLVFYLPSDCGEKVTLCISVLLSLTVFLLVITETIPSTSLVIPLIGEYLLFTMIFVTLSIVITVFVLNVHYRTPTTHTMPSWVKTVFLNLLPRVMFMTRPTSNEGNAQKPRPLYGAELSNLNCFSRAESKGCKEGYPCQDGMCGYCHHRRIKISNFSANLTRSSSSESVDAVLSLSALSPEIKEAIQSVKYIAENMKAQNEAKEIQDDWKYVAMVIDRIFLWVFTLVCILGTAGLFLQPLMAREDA
# T2 sequence (P30532 23-468 partner): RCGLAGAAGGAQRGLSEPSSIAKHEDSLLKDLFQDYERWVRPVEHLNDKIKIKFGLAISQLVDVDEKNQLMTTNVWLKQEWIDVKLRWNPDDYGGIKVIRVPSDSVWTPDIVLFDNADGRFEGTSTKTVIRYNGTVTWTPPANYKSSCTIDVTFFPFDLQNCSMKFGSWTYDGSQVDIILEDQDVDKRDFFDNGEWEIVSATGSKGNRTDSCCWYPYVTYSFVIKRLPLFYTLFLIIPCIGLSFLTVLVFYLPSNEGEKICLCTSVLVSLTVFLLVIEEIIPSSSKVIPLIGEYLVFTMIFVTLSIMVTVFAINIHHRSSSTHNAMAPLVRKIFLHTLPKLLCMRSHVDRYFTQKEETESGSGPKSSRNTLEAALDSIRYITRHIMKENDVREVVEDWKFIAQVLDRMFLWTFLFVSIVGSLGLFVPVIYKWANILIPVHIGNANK
# T2 sequence (P30926 22-498, further chain): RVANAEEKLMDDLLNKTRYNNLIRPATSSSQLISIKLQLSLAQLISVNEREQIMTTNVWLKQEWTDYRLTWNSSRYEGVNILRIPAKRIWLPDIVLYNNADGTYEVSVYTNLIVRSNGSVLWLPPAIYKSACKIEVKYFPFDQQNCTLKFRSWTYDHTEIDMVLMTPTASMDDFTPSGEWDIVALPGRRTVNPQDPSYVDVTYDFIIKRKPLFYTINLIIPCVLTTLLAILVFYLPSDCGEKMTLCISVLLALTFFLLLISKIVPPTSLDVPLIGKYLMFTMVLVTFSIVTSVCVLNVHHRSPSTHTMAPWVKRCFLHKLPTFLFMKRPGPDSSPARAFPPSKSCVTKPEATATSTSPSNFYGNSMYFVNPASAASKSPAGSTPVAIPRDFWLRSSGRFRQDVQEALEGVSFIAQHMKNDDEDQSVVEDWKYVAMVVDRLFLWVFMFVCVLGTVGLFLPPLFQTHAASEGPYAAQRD
# Source text: as §1, §2, §3, §4
# [3] = biological target: T3, nAChR subtype alpha3beta4 (Homo sapiens, UniProt P30926+P32297); assay: as above; type: cell-based; conditions: response relative to ACh response
# T3 construct: expressed in transfected cells
# T3 sequence (P32297 32-505): as the sequence (P32297 32-505) above
# T3 sequence (P30926 22-498): as the sequence (P30926 22-498, further chain) above
# Source text: as §1, §2, §3, §4
# [4] = biological target: T4, nAChR subtype alpha4alpha6beta2 (Homo sapiens, UniProt P17787+P43681+Q15825); assay: as above; type: cell-based; conditions: response relative to ACh response
# T4 construct: expressed in transfected cells
# T4 sequence (P43681 29-627 limits assumed): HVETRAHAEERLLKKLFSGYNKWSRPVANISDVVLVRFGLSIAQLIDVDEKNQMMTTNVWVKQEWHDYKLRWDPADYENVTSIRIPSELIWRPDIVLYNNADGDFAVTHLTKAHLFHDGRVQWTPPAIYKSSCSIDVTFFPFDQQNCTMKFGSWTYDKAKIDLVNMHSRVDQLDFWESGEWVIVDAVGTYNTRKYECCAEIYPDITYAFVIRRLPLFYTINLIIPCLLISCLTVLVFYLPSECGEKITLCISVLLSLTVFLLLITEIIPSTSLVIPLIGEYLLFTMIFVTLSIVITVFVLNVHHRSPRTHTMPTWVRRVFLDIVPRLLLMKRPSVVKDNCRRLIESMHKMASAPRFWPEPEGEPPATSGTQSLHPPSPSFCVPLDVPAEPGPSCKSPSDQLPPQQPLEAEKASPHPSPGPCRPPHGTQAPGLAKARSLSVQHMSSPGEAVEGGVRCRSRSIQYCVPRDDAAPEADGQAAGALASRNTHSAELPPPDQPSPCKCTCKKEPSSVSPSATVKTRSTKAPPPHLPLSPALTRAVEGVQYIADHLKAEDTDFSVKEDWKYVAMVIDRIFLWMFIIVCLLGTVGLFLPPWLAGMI
# T4 sequence (Q15825 26-494): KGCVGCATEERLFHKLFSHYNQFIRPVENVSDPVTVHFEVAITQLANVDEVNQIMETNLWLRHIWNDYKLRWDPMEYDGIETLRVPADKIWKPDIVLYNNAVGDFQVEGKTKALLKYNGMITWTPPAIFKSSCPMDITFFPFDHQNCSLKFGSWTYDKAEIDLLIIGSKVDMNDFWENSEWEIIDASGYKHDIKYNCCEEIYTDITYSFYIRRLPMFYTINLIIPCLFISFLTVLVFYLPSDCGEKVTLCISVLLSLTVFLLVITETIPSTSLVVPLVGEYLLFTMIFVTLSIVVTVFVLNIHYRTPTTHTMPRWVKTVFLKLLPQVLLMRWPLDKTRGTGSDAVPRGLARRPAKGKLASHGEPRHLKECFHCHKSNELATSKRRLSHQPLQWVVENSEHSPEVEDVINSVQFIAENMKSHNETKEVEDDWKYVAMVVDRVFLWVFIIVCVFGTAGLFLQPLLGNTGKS
# T4 sequence (P17787 26-502): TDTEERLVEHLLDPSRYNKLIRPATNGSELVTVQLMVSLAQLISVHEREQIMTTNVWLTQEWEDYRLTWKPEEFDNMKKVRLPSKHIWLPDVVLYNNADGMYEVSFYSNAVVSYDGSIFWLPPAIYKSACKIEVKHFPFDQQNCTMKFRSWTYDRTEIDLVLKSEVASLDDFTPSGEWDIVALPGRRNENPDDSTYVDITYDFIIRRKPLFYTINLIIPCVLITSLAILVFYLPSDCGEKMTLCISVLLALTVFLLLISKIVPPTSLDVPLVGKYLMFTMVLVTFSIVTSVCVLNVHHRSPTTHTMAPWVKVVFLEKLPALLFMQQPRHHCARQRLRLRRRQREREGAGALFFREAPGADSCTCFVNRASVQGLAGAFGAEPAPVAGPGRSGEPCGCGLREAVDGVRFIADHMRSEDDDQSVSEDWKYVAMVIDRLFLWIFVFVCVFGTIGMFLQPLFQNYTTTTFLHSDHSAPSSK
# Source text: as §1, §2, §3, §4
# [5] = biological target: T5, nAChR subtype alpha4beta2 (Homo sapiens, UniProt P17787+P43681); assay: as above; type: cell-based; conditions: response relative to ACh response
# T5 construct: expressed in transfected cells
# T5 sequence (P43681 29-627 limits assumed): as the sequence (P43681 29-627 limits assumed) above
# T5 sequence (P17787 26-502): as the sequence (P17787 26-502) above
# Source text: as §1, §2, §3, §4
# [6] = biological target: T6, nAChR subtype alpha6beta2 (Homo sapiens, UniProt P17787+Q15825); assay: as above; type: cell-based; conditions: response relative to ACh response
# T6 construct: expressed in transfected cells
# T6 sequence (Q15825 26-494): as the sequence (Q15825 26-494) above
# T6 sequence (P17787 26-502): as the sequence (P17787 26-502) above
# Source text: as §1, §2
# (§5) Cells that express a particular human nAChR subtype are first exposed to ACh. ACh binds and activates the receptor, thereby evoking a current. The concentration of the ACh is chosen to elicit the maximum response of the receptor (e.g., 1280 micromolar ACh). This current is recorded as the ACh response and serves as the 100% nAChR agonist response and to which responses to other nAChR agonists are compared. […] The current evoked by exposure to the nAChR agonist is measured and recorded for each nAChR concentration. […] The nAChR agonist response is then calculated as a percentage of the ACh response.
# (§6) A nAChR agonist evoking a response equal to or greater than the maximum ACh response determined at the same receptor type is a full agonist. […]
# [7] = tested on: tear film; assay: hNGF concentration in tear film collected on Schirmer test strips (ELISA), with and without intranasal varenicline; type: in vivo, Dutch-Belted rabbits; conditions: rabbits given rAAV9.hNGF intralacrimally; intranasal varenicline on days 21, 28 and 41
# Procedure: FIG. 8 is a plot showing the concentration of hNGF in tear film in animals treated with AAV.hNGF and varenicline. Protein concentration was measured using Schirmer tear strips to collect tear film from Dutch-belted rabbits at the indicated number of days following intralacrimal administration of AAV2.hNGF, AAV5.hNGF, or AAV9.hNGF. At days 21, 28, and 41, tear film was collected following the intranasal administration of the tear inducing agent, varenicline. Control animals had no injection of AAV.
# A Schirmer tear test was performed to collect eye moisture from the animals on Days 7, 14, 21, 28, 41, and 42. Test strips were placed inside the lower eyelid for approximately 1 minute. The paper was removed and placed into separate tubes and frozen at −80° C. for subsequent analysis. Schirmer test strips were collected following intranasal administration of varenicline on Days 21, 28, and 41. Test strips were placed inside the lower eyelid for approximately 1 minute. The paper was removed and placed into separate tubes and frozen at −80° ° C. for subsequent analysis. Protein content absorbed onto Schirmer's test strips was analyzed for concentration of hNGF by ELISA assay.
# A Schirmer tear test was performed to collect eye moisture from the animals on Days 7, 14, 21, 28, 41, and 42. […] Protein content absorbed onto Schirmer's test strips was analyzed for concentration of hNGF by ELISA assay.
# [8] = tested on: tear film; assay: Mesoscale discovery (MSD) assay of hNGFβ in porcine tears after lacrimal gland transduction; type: in vivo, pigs (Sus scrofa domesticus); conditions: pigs given AAV9-hNGFβ; Day 28 (0.03 mg varenicline solution each nostril) vs Day 21 and Day 35 (no nasal spray); data not shown
# [9] = tested on: subjects with dry eye; conditions: 28-day course of 0.1% ophthalmic formulation, Phase II; cited from earlier work
# [10] = biological target: T7, nAChR subtype alpha3beta2 (Homo sapiens, UniProt P17787+P32297); assay: nAChR agonist response (evoked current compared with ACh response) in cells expressing a nAChR subtype; type: cell-based; conditions: response relative to ACh response
# T7 construct: expressed in transfected cells
# T7 sequence (P32297 32-505): as the sequence (P32297 32-505) above
# T7 sequence (P17787 26-502): as the sequence (P17787 26-502) above
# Source text: as §1, §2, §5, §6
compound,measurement,setting,value
"C(=C\[C@H]1CCNC1)/c1cncnc1.O=C(O)CC(O)(CC(=O)O)C(=O)O [compound 1 citrate, (R)-5-((E)-2-pyrrolidin-3-ylvinyl)pyrimidine mono-citrate]",percent of the maximal ACh-evoked current,"[1]; 300 micromolar concentration, subtype alpha7",25%
"O=C(O)C(O)C(O)C(=O)O.c1cnc2cc3c(cc2n1)C1CNCC3C1 [Varenicline, varenicline]",agonist characterization at nAChR subtype alpha3alpha5beta4,[2],partial agonist
same,agonist characterization at nAChR subtype alpha3beta4,[3],partial agonist
same,agonist characterization at nAChR subtype alpha4alpha6beta2,[4],partial agonist
same,agonist characterization at nAChR subtype alpha4beta2,[5],partial agonist
same,agonist characterization at nAChR subtype alpha7,[1],full agonist
same,agonist characterization at nAChR subtype alpha6beta2,[6],partial agonist
same,increase of hNGF concentration in the Schirmer strip over the levels measured at the 7 and 14 day collections,[7],up to 3 fold
same,effect of nasal spray on tear hNGFβ protein concentration,[8],increased tear hNGFβ protein concentration
"Tβ4: 43-amino acid peptide, SEQ ID NO: 26; tested as 0.1% Tβ4 ophthalmic formulation (SDKPDMAEIEKFDKSKLKKTETQEKNPLPSKETIEQEKQAGES; listed as Homo sapiens)",effect on corneal staining,[9],significant positive effects
same,effect on ocular discomfort,[9],significant positive effects
"C(=C\[C@H]1CCNC1)/c1cncnc1 [Compound 1, (R)-5-((E)-2-pyrrolidin-3-ylvinyl)pyrimidine]",agonist characterization at nAChR subtype alpha3alpha5beta4,[2],full agonist
same,agonist characterization at nAChR subtype alpha3beta4,[3],full agonist
same,agonist characterization at nAChR subtype alpha4alpha6beta2,[4],full agonist
same,agonist characterization at nAChR subtype alpha4beta2,[5],full agonist
same,agonist characterization at nAChR subtype alpha7,[1],weak partial agonist
same,agonist characterization at nAChR subtype alpha3beta2,[10],partial agonist
